Test results from EPA's ToxValDB 9.5 (doi:10.2903/j.efsa.2020.6151).

Key:
[1] = system: Typhlodromus pyri; experiment: LR50; higher = less toxic; conditions: not reported; mortality
[2] = system: Rattus norvegicus
[3] = system: Folsomia candida; conditions: chronic/long-term; duration: 28 days; reproduction
[4] = system: Pimephales promelas; conditions: chronic/long-term; duration: 33 days; other
[5] = system: Apis mellifera; conditions: acute, mortality
[6] = system: Colinus virginianus; conditions: for LD50: acute, oral, mortality
[7] = system: Bibionidae; conditions: chronic/long-term; duration: 28 days; seedling emergence
[8] = system: Daphnia magna; conditions: chronic/long-term; duration: 21 days; other

`C#CCOC(=O)[C@@H](C)Oc1ccc(Oc2ncc(Cl)cc2F)cc1` [Clodinafop-propargyl] showed an LR50 [1] greater than 90 g/ha, an LD50 ([2]; acute, oral, mortality) greater than 1390 mg/kg and an NOAEL ([2]; chronic, duration: 2 years, M, histopathology: neoplastic) of 0.03 mg/kg-day. It also gave an NOAEL ([2]; developmental, development) of 5 mg/kg-day, an NOAEL ([2]; reproduction developmental, body weight) of 3.4 mg/kg-day and an NOAEL ([2]; subchronic, duration: 90 days, organ weight) of 0.92 mg/kg-day. The NOEC [3] was 1.6 mg/kg, the NOEC [4] was 0.024 mg/L and the LD50 ([5]; dermal) was greater than 100 µg/piece. The LD50 ([5]; oral, unspecified) was greater than 104 µg/piece, the LD50 ([6]; duration: 5 days, diet) was greater than 1040 mg/kg-day and the LD50 [6] was 1460 mg/kg. It also gave an NOEC ([6]; reproduction developmental) of 48.9 mg/kg-day, an NOEC [7] of 1.2 mg/L and an NOEC [8] of 0.23 mg/L.
